Laboratory results: patent US9579358B2, “Compositions for binding to amyloid proteins” (LANCASTER UNIVERSITY BUSINESS ENTERPRISES LIMITED, priority 2011, dated 2017)
Where two headings read alike, the source gives them in different places.

Experiments:
Aβ42 = biological target: T1, Aβ42 (Homo sapiens, UniProt P05067); assay: Thioflavin T (ThT) assay for Aβ fibrils; format: biochemical; settings: Table 3, 1:2 molar ratio to Aβ
T1 construct: Recombinant Aβ42, Ultrapure, was purchased from rPeptide, Bogart, Ga., USA; purchased rPeptide, Bogart, Ga., USA
Description: This method was the same as that published previously. Briefly, 60 μl samples of solutions containing Aβ42 (25 μM), ThT (15 μM) and between 0 and 125 μM RI-OR2 or RI-OR2-TAT, in 10 mM phosphate buffered saline (PBS), pH 7.4, were incubated in sealed, black, clear-bottomed 384-well plates (Corning). ThT fluorescence was monitored every 10 mins (λex=442 nm, λem=483 nm) for 48 h at 30° C. in a Biotek Synergy 2 plate reader.

[1] = biological target: immobilized Aβ1-42 monomers and fibrils (Homo sapiens, UniProt P05067); settings: cited from earlier work
immobilized Aβ1-42 monomers and fibrils, sequence (P05067 672-713 limits assumed): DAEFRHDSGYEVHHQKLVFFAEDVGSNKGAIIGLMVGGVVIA

T1 sequence (P05067 672-713 limits assumed): as above

Ac-rGffvlkGr-NH2 [RI-OR2, reference compound]
% of control (Aβ42; 48 hrs, Aβ alone = 100): 35% | RFU at 48 hours (Aβ42; Aβ 25 μM): 72265 RFU | Kd ([1]; previously reported value, read-out: Kd, binding to Aβ42 fibrils): 9.5 µM | Kd ([1]; published SPR data (28), read-out: binding affinity (Kd) for interaction with Aβ monomers and fibrils): 25 to 30 µM
